Assays:
[1] = molecular target: human Bisphosphoglycerate mutase (hBPGM) (Homo sapiens (Human), UniProt P07738); experiment: BPGM Phosphatase Assay; type: biochemical; conditions: Table 6 additional results; read-out: huBPGM: phosphatase Enzyme EC50
Method: Solutions of the test compounds were then added to the plate and the DMSO content was normalized across the plate. The plate was incubated at RT for 15 min. Next, the substrate 2,3-BPG (5 μL) was added to all the wells, and the plate was sealed and incubated for 24 hr at RT. After incubation, BIOMOL green dye (40 μL) was added to all the wells, the plate was shaken to mix, and the plate was incubated at RT for 20-30 min.

hBPGM = hBPGM (Homo sapiens (Human), UniProt P07738); experiment: BPGM Synthase Assay; type: biochemical; conditions: Table 6 additional results; read-out: huBPGM: synthase Enzyme IC50
hBPGM, sequence (P07738 whole entry, looked up): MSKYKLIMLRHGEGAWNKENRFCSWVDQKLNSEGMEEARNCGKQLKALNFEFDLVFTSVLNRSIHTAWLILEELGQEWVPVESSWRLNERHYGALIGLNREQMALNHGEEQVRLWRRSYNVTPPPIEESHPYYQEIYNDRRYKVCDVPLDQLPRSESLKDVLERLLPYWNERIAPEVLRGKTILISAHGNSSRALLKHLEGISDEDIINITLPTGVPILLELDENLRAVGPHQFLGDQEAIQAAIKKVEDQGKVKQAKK
Method: Example B1. BPGM Synthase Assay
The following materials were used in this assay: deionized water; Bisphosphoglycerate mutase (BPGM; Standard Buffer: 50 mM Tris, 0.01% Tween 20, pH 7.4); BPGM Reaction Buffer (50 mM Tris, 0.01% Tween 20, 3.23 mM KH2PO4, pH 7.4); dithiothreitol (DTT; Stock solution: 100 mM in Standard Buffer); 384-Well Black Assay Plate (Corning, P/N 3575); DMSO; BPGM Stock Solution (500 nM in BPGM Standard Buffer); Glyceraldehyde 3-phosphate dehydrogenase (GAPDH; Stock Solution: 40 U/mL in 20 mM Tris-HCL Buffer with 20% Glycerol, 1 mM EDTA, 1 mM DTT); Glyceraldehyde 3-phosphate (GAP; Stock Solution: 20 mM in BPGM Standard Buffer); 3-PG Stock Solution (500 μM in BPGM Standard Buffer); Nicotinamide adenine dinucleotide (NAD; Stock Solution: 50 mM in BPGM Standard Buffer); Koningic Acid (1 mM Stock in DMSO); Resazurin Stock Solution (10 mM in DMSO); Diaphorase Stock Solution (40 U/mL in BPGM Standard Buffer); DTT Reaction Buffer (1 mM DTT in BPGM Reaction Buffer); Enzyme Solution (5 nM BPGM, 0.4 U/mL GAPDH in DTT Reaction Buffer); GAPDH Solution (0.4 U/mL GAPDH in DTT Reaction Buffer); Substrate Solution (2 mM NAD, 20 μM 3PG, 800 μM GAP in DTT Reaction Buffer); and Resazurin Solution (5 U/mL Diaphorase, 500 μM Resazurin in BPGM Standard Buffer).
To the assay plate was added Enzyme Solution (20 uL) to columns 2-22 and 24 of the assay plate. To columns 1 and 23 was added GAPDH Solution (20 uL). A separate compound plate was prepared at the desired concentrations and all wells were normalized with 5% DMSO. The compound plate was incubated for 30 minutes at RT. Next, the substrate solution (20 μL) was dispensed to all reaction wells and the plate was incubated for 60 minutes at RT. Koningic acid (1 μL) was added and the plate was incubated for 10 minutes at RT. During this time period, the NADH fluorescence was read at ex: 360/em: 460. Next, Resazurin Solution (10 μL) was added to all reaction wells and the plate was incubated for 30 minutes at RT. The resorufin fluorescence was then read at ex:544/em:590.

human Bisphosphoglycerate mutase (hBPGM), sequence (P07738 whole entry): as the sequence (P07738 whole entry, looked up) above

Compound | EC50 [1] [nM] | IC50 (hBPGM) [nM]
Cc1nc(COc2ccc(Cl)cn2)sc1-c1cccc(-c2ccc(C(=O)O)c(O)c2)c1 [Example 74] | 1100 | 1800
Cc1nc(COc2ccn(C)n2)sc1-c1csc(-c2cc(O)c(C(=O)O)cc2F)n1 [Example 219] | 65 | 120
Cc1nc(COc2cccc(C#N)c2)sc1-c1cccc(-c2ccc(C(=O)O)c(O)c2)c1 [Example 108] | 500 | 3200
Cc1nc(CNC2CCCCC2)sc1-c1csc(-c2cc(O)c(C(=O)O)cc2F)n1 [Example 174] | 230 | 530
Cc1nc(Cc2ccccc2)sc1-c1cccc(-c2cc(O)c(C(=O)O)cc2F)c1 [Example 105] | 290 | 1600
Cc1nc(CNC(=O)N(C)C)sc1-c1csc(-c2cc(O)c(C(=O)O)cc2F)n1 [Example 226] | 110 | 56
Cc1nc(COC(=O)N2CCCC2)sc1-c1csc(-c2cc(O)c(C(=O)O)cc2F)n1 [Example 154] | 40 | 170
Cc1nc(Cc2ccccc2)sc1-c1csc(-c2cc(O)c(C(=O)O)cc2F)n1 [Example 165] | 40 | 240
Cc1nc(COc2ncccn2)sc1-c1cccc(-c2csc(C(=O)O)n2)n1 [Example 87] | 8700 | 3400
Cc1nc(C)c(-c2nsc(-c3cc(O)c(C(=O)O)c(F)c3F)n2)s1 [Example 134] | 340 | 1000
Cc1nc(CNC(=O)C(C)(C)C)sc1-c1csc(-c2cc(O)c(C(=O)O)cc2F)n1 [Example 124] | 50 | 49
Cc1nc(CNC(=O)OCC(F)(F)F)sc1-c1csc(-c2cc(O)c(C(=O)O)cc2F)n1 [Example 136] | 90 | 310
Cc1nc(COc2cc(C(F)(F)F)nn2C)sc1-c1cccc(-c2ccc(C(=O)O)cc2)n1 [Example 65] | > 25000 | 2600
Cc1nc(CNC(=O)C(N)=O)sc1-c1csc(-c2cc(O)c(C(=O)O)cc2F)n1 [Example 202] | 150 | 120
COCCNCc1nc(C)c(-c2csc(-c3cc(O)c(C(=O)O)cc3F)n2)s1 [Example 175] | 320 | 520
Cc1nc(COc2cccc(C#N)n2)sc1-c1cccc(-c2ccc(C(=O)O)c(O)c2)c1 [Example 256] | 70 | 880
Cc1nc(CNC(=O)C2CC2)sc1-c1csc(-c2cc(O)c(C(=O)O)cc2F)n1 [Example 232] | 93 | 60
Cc1nc(COc2ccccn2)sc1-c1csc(-c2cc(O)c(C(=O)O)cc2F)c1 [Example 146] | 50 | 460
Cc1nc(CNC(=O)c2ncccn2)sc1-c1csc(-c2cc(O)c(C(=O)O)cc2F)n1 [Example 192] | 120 | 49
COC(=O)NCc1nc(C)c(-c2ccnc(-c3ccc(C(=O)O)c(O)c3)n2)s1 [Example 185] | 30 | 160
Cc1nc(CNC(=O)C2CCCC2)sc1-c1csc(-c2cc(O)c(C(=O)O)cc2F)n1 [Example 222] | 130 | 110
Cc1nc(COc2ncccn2)sc1-c1cccc(-c2ccc(C(=O)O)c(F)c2)n1 [Example 96] | 10 | 1300
Cc1nc(Cc2cccnc2)sc1-c1csc(-c2cc(O)c(C(=O)O)cc2F)c1 [Example 143] | 80 | 200
Cc1nc(Cc2cccnc2)sc1-c1cccc(-c2cc(O)c(C(=O)O)cc2F)c1 [Example 99] | 280 | 400
Cc1nc(Cn2cccn2)sc1-c1cccc(-c2cc(O)c(C(=O)O)cc2F)n1 [Example 223] | 190 | 150
Cc1nc(COC(=O)N(C)CCN(C)C)sc1-c1csc(-c2cc(O)c(C(=O)O)cc2F)n1 [Example 113] | 170 | 130
Cc1nc(CNC(=O)c2cccnn2)sc1-c1csc(-c2cc(O)c(C(=O)O)cc2F)n1 [Example 171] | 30 | 28

Compound | EC50 [1] [nM] | IC50 (hBPGM) [nM]
COC(=O)NCc1nc(C)c(-c2csc(-c3cc(C)c(C(=O)O)c(O)c3)n2)s1 [Example 208] | 420 | 360
Cc1nc(CNC(=O)C2CC2)sc1-c1csc(-c2ccc(C(=O)O)c(O)c2)c1 [Example 97] | 160 | 100
Cc1nc(COc2ccccn2)sc1-c1cccc(-c2ccc(C(=O)O)c(O)c2)n1 [Example 128] | 79 | 190
Cc1nc(Cn2cccn2)sc1-c1cccc(-c2ccc(C(=O)O)c(O)c2)c1 [Example 286] | 3100 | 810
Cc1nc(COc2ncccn2)sc1-c1csc(-c2cc(O)c(C(=O)O)cc2F)n1 [Example 137] | 20 | 28
Cc1nc(C)c(-c2csc(-c3cc(O)c(C(=O)O)cc3F)c2)s1 [Example 254] | 220 | 290
Cc1nc(COc2ccnn2C)sc1-c1csc(-c2cc(O)c(C(=O)O)cc2F)n1 [Example 218] | 170 | 130
COC(=O)NCc1nc(C)c(-c2csc(-c3cc(O)c(C(=O)O)cn3)n2)s1 [Example 207] | 340 | 280
Cc1nc(CNC(=O)C2CC2)sc1-c1cccc(-c2cc(O)c(C(=O)O)cc2F)n1 [Example 236] | 360 | 130
Cc1nc(COc2ncccn2)sc1-c1cccc(-c2cnc(C(=O)O)s2)n1 [Example 94] | > 25000 | 11000
COC(=O)NCc1nc(C)c(-c2csc(-c3cc(O)c(CC(=O)O)cc3F)n2)s1 [Example 116] | > 25000 | 6900
COC(=O)NCc1nc(C)c(-c2cc(-c3cc(O)c(C(=O)O)cc3F)sn2)s1 [Example 168] | 530 | 370
Cc1nc(Cn2c(C)cccc2=O)sc1-c1cccc(-c2ccc(C(=O)O)c(O)c2)c1 [Example 267] | 350 | 520
Cc1nc(C(C)NC(=O)c2cccnn2)sc1-c1csc(-c2cc(O)c(C(=O)O)cc2F)n1 (stereo not drawn) [Example 151] | 70 | 65
Cc1nc(COC(=O)N(C)C)sc1-c1csc(-c2cc(O)c(C(=O)O)cc2F)n1 [Example 158] | > 25000 | 44
Cc1nc(CN)sc1-c1csc(-c2cc(O)c(C(=O)O)cc2F)n1 [Example 243] | 990 | 830
COC(=O)NCc1nc(C)c(-c2csc(-c3cc(O)c(C(=O)NCC(=O)NCC(=O)O)cc3F)n2)s1 [Example 119] | 1800 | 340
Cc1nc(COC2CCCOC2)sc1-c1cccc(-c2cc(C(=O)O)cs2)n1 (stereo not drawn) [Example 49] | 520 | 350
COC(=O)N[C@@H](C)c1nc(C)c(-c2csc(-c3cc(O)c(C(=O)O)cc3F)n2)s1 [Example 177] | 160 | 59
Cc1nc(Cc2cccnc2)sc1-c1cccc(-c2ccc(C(=O)O)c(O)c2)n1 [Example 237] | 170 | 140
COCCOCCOCCOCCOCC(=O)NCc1nc(C)c(-c2csc(-c3ccc(C(=O)O)c(O)c3)n2)s1 [Example 121] | 3200 | 1800
Cc1nc(CNC(=O)C2CCN(C)CC2)sc1-c1csc(-c2cc(O)c(C(=O)O)cc2F)n1 [Example 126] | 240 | 460
Cc1nc(CNC(=O)C(C)C)sc1-c1csc(-c2cc(O)c(C(=O)O)cc2F)n1 [Example 231] | 170 | 52
Cc1nc(CNC(=O)c2ccon2)sc1-c1csc(-c2cc(O)c(C(=O)O)cc2F)n1 [Example 152] | 40 | 67
Cc1nc(CNC(=O)CN(C)C)sc1-c1csc(-c2cc(O)c(C(=O)O)cc2F)n1 [Example 120] | > 25000 | 500
Cc1nc(COc2cnccn2)sc1-c1csc(-c2cc(O)c(C(=O)O)cc2F)n1 [Example 140] | 30 | 95
Cc1nc(CNC(=O)c2cccc(C#N)n2)sc1-c1csc(-c2cc(O)c(C(=O)O)cc2F)n1 [Example 180] | 20 | 28

— patent US20230348450A1, “CARBOXYLIC ACID-CONTAINING COMPOUNDS AS MODULATORS OF BIS-PHOSPHOGLYCERATE MUTASE FOR THE TREATMENT OF SICKLE CELL DISEASE” (Genzyme Corporation, priority 2020, published 2023)
